The test relates to P388 leukemia ip, CD2F1 mice, survival T/C. Description: NCI In Vivo Anticancer Drug Screen. Data for tumor model P388 Leukemia (intraperitoneal) in CD2F1 (CDF1) mice. As to conditions: endpoint: median survival time, higher = longer survival. An outline of the steps: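 Mice carrying the transplanted tumor received test compound or vehicle. Survival was recorded in each group, and the value is the treated-group measurement divided by that of the vehicle-treated control group.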

[1] abbreviates: dose: 25.0 mg/kg/injection, schedule: Q01DX005 (ip), vehicle: saline with Tween-80.
[2] abbreviates: dose: 50.0 mg/kg/injection, schedule: Q01DX005 (ip), vehicle: saline with Tween-80.
Setting [3] is: dose: 200.0 mg/kg/injection, schedule: Q01DX005 (ip), vehicle: saline with Tween-80.
Setting [4] is: dose: 100.0 mg/kg/injection, schedule: Q01DX005 (ip), vehicle: saline with Tween-80.
Setting [5] is: dose: 50.0 mg/kg/injection, schedule: Q01DX009 (ip), vehicle: saline with Tween-80.
Where [6] appears, read: dose: 100.0 mg/kg/injection, schedule: Q01DX009 (ip), vehicle: saline with Tween-80.
Where [7] appears, read: dose: 60.0 mg/kg/injection, schedule: Q01DX005 (ip), vehicle: saline with Tween-80.
The mark [8] stands for this setting: dose: 120.0 mg/kg/injection, schedule: Q01DX005 (ip), vehicle: saline with Tween-80.
Setting [9] is: dose: 240.0 mg/kg/injection, schedule: Q01DX005 (ip), vehicle: saline with Tween-80.
[10] abbreviates: dose: 50.0 mg/kg/injection, schedule: Q01DX009 (ip), vehicle: saline.
The mark [11] stands for this setting: dose: 100.0 mg/kg/injection, schedule: Q01DX009 (ip), vehicle: saline.
Where [12] appears, read: dose: 200.0 mg/kg/injection, schedule: Q01DX009 (ip), vehicle: saline.

SMILES strings stand for the structures. Values joined by “and” are separate entries in the source; they are usually repeats but may differ in a detail not shown here. Equal entries are not always repeated. Inconclusive results and toxic doses are left out.

For `C(=N\Nc1nnc(-c2ccccc2)c(-c2ccccc2)n1)/c1cccnc1`, the T/C by setting is: (dose: 12.5 mg/kg/injection, schedule: Q01DX005 (ip), vehicle: saline with Tween-80) 86 % of control; under setting [1], 96 % of control; under setting [2], 89 % of control; under setting [3], 90 % of control.
In the case of `NC(=S)n1nc(-c2ccccc2)c(N=Nc2ccccc2C(F)(F)F)c1-c1ccccc1`, the T/C under setting [2] is 102 % of control, the T/C under setting [4] is 93 % of control and the T/C under setting [3] is 88 % of control.
For the compound `O=C1C=CC(=O)C1=Cc1ccc([N+](=O)[O-])cc1`, the T/C (dose: 2.5 mg/kg/injection, schedule: Q04DX002 (ip), vehicle: saline with Tween-80) was 100 % of control; the T/C (dose: 5.0 mg/kg/injection, schedule: Q04DX002 (ip), vehicle: saline with Tween-80) was 104 % of control; the T/C (dose: 10.0 mg/kg/injection, schedule: Q04DX002 (ip), vehicle: saline with Tween-80) is 101 % of control; the T/C (dose: 25.0 mg/kg/injection, schedule: Q04DX002 (ip), vehicle: saline with Tween-80) is 96 % of control; the T/C (dose: 50.0 mg/kg/injection, schedule: Q04DX002 (ip), vehicle: saline with Tween-80) is 98 % of control.
As for `O=C(C[N+](=O)[O-])c1ccc(Cl)cc1`, the T/C under setting [5] is 87 % of control and the T/C under setting [6] was 91 % of control.
Regarding `CCOC(=O)c1c(C)cc2ccccn12`, the T/C was 103 % of control under setting [7], 103 % of control under setting [8] and 105 % of control under setting [9].
As to `c1ccc2nc3c(nc2c1)[nH]c1ccccc13`, the T/C reads like this: (dose: 6.25 mg/kg/injection, schedule: Q01DX009 (ip), vehicle: Klucel (hydroxypropylcellulose) (HPC)) 101 % of control; (dose: 12.5 mg/kg/injection, schedule: Q01DX009 (ip), vehicle: Klucel (hydroxypropylcellulose) (HPC)) 95 % of control; (dose: 25.0 mg/kg/injection, schedule: Q01DX009 (ip), vehicle: Klucel (hydroxypropylcellulose) (HPC)) 103 % of control; (dose: 50.0 mg/kg/injection, schedule: Q01DX009 (ip), vehicle: Klucel (hydroxypropylcellulose) (HPC)) 95 % of control.
Take `CCOC(=O)C(C#N)(CCC(=NC(C)(C)C)Nc1ccccc1C#N)CCC(=NC(C)(C)C)Nc1ccccc1C#N` (stereo unspecified): the T/C is, setting by setting: under setting [5], 100 % of control; under setting [6], 94 % of control.
In the case of `COc1cc(C(C)c2cc3c(cc2OCCO)OCO3)cc(OC)c1OC` (stereo unspecified), the T/C runs as follows: under setting [1], 92 % of control and 94 % of control; (dose: 400.0 mg/kg/injection, schedule: Q01DX005 (ip), vehicle: saline with Tween-80) 161 % of control and 180 % of control.
Take `[CH3][Ge]([O][Ge]([CH3])([c]1ccccc1)[c]1ccccc1)([c]1ccccc1)[c]1ccccc1`: the T/C was 102 % of control under setting [10], 93 % of control under setting [11] and 92 % of control under setting [12].
For `COc1cccc2c1C(=O)c1c(O)c3c(c(O)c1C2=O)CC(O)(C(C)=O)CC3OC1CC(NC2=CC(=O)CC(C)(C)C2)C(O)C(C)O1` (stereo unspecified), the T/C (dose: 3.13 mg/kg/injection, schedule: Q04DX003 (ip), vehicle: distilled water + Tween-80) was 103 % of control; the T/C (dose: 6.25 mg/kg/injection, schedule: Q04DX003 (ip), vehicle: distilled water + Tween-80) is 103 % of control; the T/C (dose: 12.5 mg/kg/injection, schedule: Q04DX003 (ip), vehicle: distilled water + Tween-80) is 100 % of control; the T/C (dose: 25.0 mg/kg/injection, schedule: Q04DX003 (ip), vehicle: distilled water + Tween-80) is 100 % of control; the T/C (dose: 50.0 mg/kg/injection, schedule: Q04DX003 (ip), vehicle: distilled water + Tween-80) is 109 % of control.
In the case of `CC(=O)c1c(O)ccc2nc3ccccc3nc12`, the T/C was 105 % of control (dose: 50.0 mg/kg/injection, schedule: Q01DX009 (ip), vehicle: suspension in saline); 111 % of control (dose: 100.0 mg/kg/injection, schedule: Q01DX009 (ip), vehicle: suspension in saline); 93 % of control (dose: 200.0 mg/kg/injection, schedule: Q01DX009 (ip), vehicle: suspension in saline).
With `Cc1cc(Nc2ccc(N(CCCl)CCCl)cc2)c(C)cc1O`, the T/C (dose: 200.0 mg/kg/injection, schedule: Q04DX003 (ip), vehicle: Klucel (hydroxypropylcellulose) (HPC)) was 159 % of control.
With `CCOC(=O)CC(N)/C(C)=N\O` (stereo unspecified), the T/C by setting is: (dose: 60.0 mg/kg/injection, schedule: Q01DX005 (ip), vehicle: Klucel + Tween-80) 104 % of control; (dose: 120.0 mg/kg/injection, schedule: Q01DX005 (ip), vehicle: Klucel + Tween-80) 100 % of control; (dose: 240.0 mg/kg/injection, schedule: Q01DX005 (ip), vehicle: Klucel + Tween-80) 100 % of control.
For the compound `C1CN(CCSSCCN2CCOCC2)CCO1`, the T/C under setting [10] was 104 % of control, the T/C under setting [11] is 113 % of control and the T/C under setting [12] is 109 % of control.
Take `C=C(CN(C)C)C(=O)c1cc(C)ccc1C`: the T/C by setting is: (dose: 0.93 mg/kg/injection, schedule: Q01DX005 (ip), vehicle: saline) 100 % of control; (dose: 1.87 mg/kg/injection, schedule: Q01DX005 (ip), vehicle: saline) 100 % of control; (dose: 3.75 mg/kg/injection, schedule: Q01DX005 (ip), vehicle: saline) 98 % of control.
For `C[C@H]1CC(=O)SC1=O`, the T/C reads like this: (dose: 25.0 mg/kg/injection, schedule: Q04DX002 (ip), vehicle: saline) 100 % of control; (dose: 50.0 mg/kg/injection, schedule: Q04DX002 (ip), vehicle: saline) 93 % of control.
Consider `Cc1[nH]c2cc(Br)ccc2c1/C=N/NC(N)=S`, for which the T/C (dose: 100.0 mg/kg/injection, schedule: Q01DX001 (ip), vehicle: Klucel (hydroxypropylcellulose) (HPC)) is 107 % of control.
On to `CCc1ccccc1NC(=O)C(=O)CC(=O)C1=C(C)Nc2ccccc2S1`, for which the T/C is, setting by setting: under setting [7], 90 % of control; under setting [8], 96 % of control; under setting [9], 99 % of control.
Regarding `Cc1cc(N=Nc2ccc(N=Nc3ccc(S(=O)(=O)O)cc3)cc2)cc(C(=O)O)c1O`, the T/C (dose: 12.5 mg/kg/injection, schedule: Q01DX009 (ip), vehicle: saline) is 114 % of control; the T/C (dose: 25.0 mg/kg/injection, schedule: Q01DX009 (ip), vehicle: saline) is 113 % of control; the T/C under setting [10] was 91 % of control and 96 % of control; the T/C under setting [12] was 93 % of control.
With `Cc1cc(/C=C2\SC(=S)NC2=O)cc(C)c1O`, the T/C reads like this: under setting [2], 110 % of control; under setting [4], 94 % of control; under setting [3], 90 % of control.
On to `COc1ccc2c(c1)CSCC2O` (stereo unspecified), for which the T/C reads like this: (dose: 50.0 mg/kg/injection, schedule: Q01DX009 (ip), vehicle: other) 95 % of control; (dose: 100.0 mg/kg/injection, schedule: Q01DX009 (ip), vehicle: other) 100 % of control; (dose: 200.0 mg/kg/injection, schedule: Q01DX009 (ip), vehicle: other) 96 % of control.
With `CCOC(=O)C(=CC=C(C(=O)OCC)C(=O)OCC)C(=O)OCC`, the T/C by setting is: (dose: 100.0 mg/kg/injection, schedule: Q04DX002 (ip), vehicle: saline with Tween-80) 112 % of control; (dose: 200.0 mg/kg/injection, schedule: Q04DX002 (ip), vehicle: saline with Tween-80) 113 % of control; (dose: 400.0 mg/kg/injection, schedule: Q04DX002 (ip), vehicle: saline with Tween-80) 115 % of control.
In the case of `Nc1nc(N)c(N=O)c(Nc2ccc(Cl)c(Cl)c2)n1`, the T/C is, setting by setting: (dose: 100.0 mg/kg/injection, schedule: Q04DX003 (ip), vehicle: saline with Tween-80) 100 % of control; (dose: 200.0 mg/kg/injection, schedule: Q04DX003 (ip), vehicle: saline with Tween-80) 90 % of control.
Regarding `CCN(CCCN(C)C)c1ccc(/C=C/c2ccnc3ccccc23)cc1`, the T/C under setting [11] is 108 % of control.
Take `C=CCn1c(=O)oc2ccc(Cl)cc21`: the T/C is 104 % of control (dose: 10.0 mg/kg/injection, schedule: Q01DX009 (ip), vehicle: saline with Tween-80); 104 % of control (dose: 20.0 mg/kg/injection, schedule: Q01DX009 (ip), vehicle: saline with Tween-80); 104 % of control (dose: 40.0 mg/kg/injection, schedule: Q01DX009 (ip), vehicle: saline with Tween-80).
